Experimental data taken from patent publication US20210040533A1, “METHOD FOR IDENTIFYING TARGET GENE OF TEST SUBSTANCE” (DRUG GENOMICS, LTD., priority 2018, published 2021).

Tested on: CBS138 strain (wild strain)
Assay: Determination of 50% inhibitory concentration of antifungal drug on wild strain (turbidity at OD 600)
Assay type: cell-based, Candida glabrata
Details: Nakaseomyces glabratus, SD medium, 30° C., 20 hours, turbidity at OD 600 decreased to about 50%

IC50 | SMILES
48 µM | CN(C/C=C/C#CC(C)(C)C)Cc1cccc2ccccc12 [terbinafine]
50 µM | OC(Cn1cncn1)(Cn1cncn1)c1ccc(F)cc1F [fluconazole]
